According to the NIST ThermoML archive (doi:10.1021/je900974u):
Numbers after ± are expanded uncertainties.

Columns and labels:
[1] = Crystal
[2] = Molar enthalpy of transition or fusion; conditions: Crystal; Adiabatic calorimetry
[3] = molar heat capacity at constant pressure; conditions: 101.33 kPa, Liquid, Vacuum adiabatic calorimetry

CCCC[N+](C)(C)C.O=S(=O)([N-]S(=O)(=O)C(F)(F)F)C(F)(F)F [butyltrimethylammonium bis(trifluoromethylsulfonyl)imide]
Triple point temperature [1]: 290.23 ± 0.2 K
Molar enthalpy of transition or fusion [2]: 2.725 ± 0.0239 kcal/mol
molar heat capacity at constant pressure ([3]; 278.32 K): 547.5 ± 0.7 J/K/mol
molar heat capacity at constant pressure ([3]; 280.19 K): 548.7 ± 0.8 J/K/mol
molar heat capacity at constant pressure ([3]; 282.06 K): 549.7 ± 0.8 J/K/mol
molar heat capacity at constant pressure ([3]; 283.93 K): 550.8 ± 0.8 J/K/mol
molar heat capacity at constant pressure ([3]; 285.8 K): 551.9 ± 0.8 J/K/mol
molar heat capacity at constant pressure ([3]; 287.67 K): 553 ± 0.8 J/K/mol
molar heat capacity at constant pressure ([3]; 289.54 K): 554.1 ± 0.8 J/K/mol
molar heat capacity at constant pressure ([3]; 291.42 K): 555.3 ± 0.8 J/K/mol
molar heat capacity at constant pressure ([3]; 293.29 K): 556.4 ± 0.8 J/K/mol
molar heat capacity at constant pressure ([3]; 293.87 K): 557 ± 0.8 J/K/mol
molar heat capacity at constant pressure ([3]; 295.16 K): 557.4 ± 0.8 J/K/mol
molar heat capacity at constant pressure ([3]; 297.04 K): 558.4 ± 0.8 J/K/mol
molar heat capacity at constant pressure ([3]; 298 K): 559.2 ± 0.8 J/K/mol
molar heat capacity at constant pressure ([3]; 298.91 K): 559.5 ± 0.8 J/K/mol
molar heat capacity at constant pressure ([3]; 300.04 K): 560.4 ± 0.8 J/K/mol
molar heat capacity at constant pressure ([3]; 302.07 K): 561.1 ± 0.8 J/K/mol
molar heat capacity at constant pressure ([3]; 304.14 K): 563.3 ± 0.8 J/K/mol
molar heat capacity at constant pressure ([3]; 306.21 K): 563.9 ± 0.8 J/K/mol
molar heat capacity at constant pressure ([3]; 308.28 K): 565.4 ± 0.8 J/K/mol
molar heat capacity at constant pressure ([3]; 310.35 K): 566.5 ± 0.8 J/K/mol
molar heat capacity at constant pressure ([3]; 312.42 K): 568.2 ± 0.8 J/K/mol
molar heat capacity at constant pressure ([3]; 314.49 K): 569.1 ± 0.8 J/K/mol
molar heat capacity at constant pressure ([3]; 316.55 K): 570.3 ± 0.8 J/K/mol
molar heat capacity at constant pressure ([3]; 318.6 K): 571.4 ± 0.8 J/K/mol
molar heat capacity at constant pressure ([3]; 320.67 K): 573.2 ± 0.8 J/K/mol
molar heat capacity at constant pressure ([3]; 322.73 K): 575.1 ± 0.8 J/K/mol
molar heat capacity at constant pressure ([3]; 324.8 K): 575 ± 0.8 J/K/mol
molar heat capacity at constant pressure ([3]; 326.86 K): 576.5 ± 0.8 J/K/mol
molar heat capacity at constant pressure ([3]; 328.92 K): 577.2 ± 0.8 J/K/mol
molar heat capacity at constant pressure ([3]; 330.98 K): 578.5 ± 0.8 J/K/mol
molar heat capacity at constant pressure ([3]; 333.04 K): 580.6 ± 0.8 J/K/mol
molar heat capacity at constant pressure ([3]; 335.09 K): 581.5 ± 0.8 J/K/mol
molar heat capacity at constant pressure ([3]; 337.15 K): 582.9 ± 0.8 J/K/mol
molar heat capacity at constant pressure ([3]; 339.2 K): 584.1 ± 0.8 J/K/mol
molar heat capacity at constant pressure ([3]; 341.26 K): 585.7 ± 0.8 J/K/mol
molar heat capacity at constant pressure ([3]; 343.31 K): 586.6 ± 0.8 J/K/mol
molar heat capacity at constant pressure ([3]; 345.36 K): 587.7 ± 0.8 J/K/mol
molar heat capacity at constant pressure ([3]; 347.41 K): 588.6 ± 0.8 J/K/mol
molar heat capacity at constant pressure ([3]; 349.46 K): 590.1 ± 0.8 J/K/mol
molar heat capacity at constant pressure ([3]; 351.49 K): 591.1 ± 0.8 J/K/mol
molar heat capacity at constant pressure ([3]; 353.54 K): 592.1 ± 0.8 J/K/mol
molar heat capacity at constant pressure ([3]; 355.59 K): 593.4 ± 0.8 J/K/mol
molar heat capacity at constant pressure ([3]; 357.65 K): 594.8 ± 0.8 J/K/mol
molar heat capacity at constant pressure ([3]; 359.7 K): 596 ± 0.8 J/K/mol
molar heat capacity at constant pressure ([3]; 361.76 K): 597.4 ± 0.8 J/K/mol
molar heat capacity at constant pressure ([3]; 363.81 K): 598.5 ± 0.8 J/K/mol
molar heat capacity at constant pressure ([3]; 365.87 K): 599.8 ± 0.8 J/K/mol
molar heat capacity at constant pressure ([3]; 367.93 K): 600.9 ± 0.8 J/K/mol
